Source: patent US20070037887A1, “Blockade of mtor to prevent a hormonal adaptive response” (University of Virginia Patent Foundation, priority 2003, published 2007)

Experiments:
LTED cells = experiment: Growth of LTED cells (cell number); assay type: cell-based, human
Experimental: FIG. 3 represents the effect of FTS on the growth of MCF-7, LTED, and MCF-10A cells. Sixty thousand cells were plated into each well of 6-well plates. Two days later, the cells were treated in triplicate for five days with FTS at indicated concentrations. The results (mean±S.E.) are expressed as percentage of the vehicle control.
FIG. 4 represents the effect of FTS on E2 stimulated growth of MCF-7 and LTED cells. Thirty thousand cells were plated into each well of 6-well plates. Two days later, the cells were re-fed with IMEM containing 5% DCC-FBS. After another two days, cells were treated in triplicate with estradiol (10^−10 M) plus various concentrations of FTS for five days. In LTED cells, fulvestrant (10^−9 M) was included in all wells to block the effect of residual estrogen in the culture. The results (mean±S.E.) are expressed as percentage of cell number from the wells containing E2.
The effect of FTS on growth of breast cancer cells was examined in two different cell lines: MCF-7 wild type cells which represent a model for untreated breast cancer and LTED cells as a model of cells adapting to endocrine treatment. Cells were grown in their culture media and treated with FTS for five days. […] The effect of FTS on E2-stimulated growth of MCF-7 and LTED cells was the examined. […]

[1] = system: ERK1/2, Akt, p70S6K, PHAS-1 phosphorylation in LTED cells; experiment: EGF induced activation of MAP kinase, PI3 kinase and mTOR in LTED cells (Western); assay type: cell-based, human
Text: FIG. 8 represents data showing the effect of FTS on EGF induced activation of MAP kinase, PI3 kinase, and mTOR in LTED cells. […] Cells were then harvested and cell lysate prepared. Phosphorylated and total kinases were detected by Western analysis using specific antibodies.
The effects of the specific growth factors, EFG and IGF-1 were also examined. Serum contains multiple growth factors that activate MAP kinase and PI3 kinase either by recruitment and activation of the common mediator Ras (such as EGF) or through a direct mechanism (such as IGF-1). To further explore the site of action of FTS, EGF-induced activation of MAPK and PI3 kinase was first examined. Specific inhibitors for PI3 kinase and mammalian target of rapamycin (mTOR) were included for comparison. […] One-hour treatment was chosen as the time point allowing most efficient comparisons among molecules.

mTOR-raptor complex = target: T1, mTOR-raptor complex (Homo sapiens, UniProt P42345+Q8N122); experiment: Coimmunoprecipitation of raptor with mTOR from 293T cells incubated with compound; assay type: cell-based; settings: nontransfected 293T cells
T1 construct: expressed in transfected cells; host or cells: 293T
Experimental: FIG. 11A & 11B represent data showing FTS inhibits PHAS-I phosphorylation and promotes dissociation of the mTOR-raptor complex in 293T cells. 293T cells were transfected with pcDNA3AU1-mTOR, pcDNA33HARaptor, pcDNA33HA-mLST8, and pCMV-Tag3APHAS-I (FIG. 11A). After 18 h the cells were incubated for 1 h with increasing concentrations of FTS before extracts were prepared. A sample of each extract was subjected to SDS-PAGE and immunoblotted to detect PHAS-I or PThr^36/45. AU1-mTOR was also immunoprecipitated from each extract, and immune complexes were subjected to SDSPAGE and immunoblotted with mTAb2, to detect mTOR, and with anti-HA antibodies, to detect HA-mLST8 and HA-raptor. Nontransfected 293T cells were incubated with increasing concentrations of FTS for 1 h before extracts were prepared. mTOR was immunoprecipitated with mTAb1, and samples were subjected to SDS-PAGE.
FIGS. 12A & 12B represent data showing the effects of incubating cells with increasing concentrations of FTS and GTS on mTOR activity and mTOR association with raptor and mLST8. AU1-mTOR, HA-raptor, and HAmLST8 were overexpressed in 293T cells. The cells were then incubated for 1 h with increasing concentrations of FTS (●, ▴, ▪) or GTS (∘, Δ, □) before extracts were prepared. Immunoprecipitations were then conducted with anti-AU1 antibodies. mTOR kinase activity (●, ∘) was determined by measuring ^32P incorporation into [His^6]PHAS-I in immune complex kinases assays performed with [γ-^32P]ATP. The relative amounts of HA-raptor (▴, Δ) and HA-mLST8 (▪, □) that coimmunoprecipitated with AU1-mTOR were determined after immunoblotting with anti-HA antibodies. The results (mean values±S.E. from 3 experiments) are expressed as percentages of the mTOR activity (FIG. 12A) or coimmunoprecipitating proteins (FIG. 12B) from samples incubated without FTS or GTS, and have been corrected for the amounts of AU1-mTOR immunoprecipitated.
To investigate further the inhibitory effects of FTS on mTOR signaling, the effect of the drug on the association of mTOR, raptor, and mLST8 was determined. AU1-mTOR and HA-tagged forms of raptor and mLST8 were overexpressed in 293T cells, which were then incubated with increasing concentrations of FTS before AU1-mTOR was immunoprecipitated with anti-AU1 antibodies. Immunoblots were prepared with anti-HA antibodies to assess the relative amounts of HA-raptor and HA-mLST8 that coimmunoprecipitated with AU 1-mTOR (FIG. 11A).
Results obtained with overexpressed proteins are not necessarily representative of responses of endogenous proteins. Therefore, experiments were conducted to investigate the effect FTS on the endogenous TORC1 in nontransfected cells. […]

[2] = pretreatment FTS 1 h, LY 294002 or rapamycin 3 h, EGF 1 μg/ml 1 h

`CC(C)=CCC/C(C)=C/CC/C(C)=C/CSc1ccccc1C(=O)O` [FTS, farnesylthiosalicylic acid] was tested, and the E2-stimulated growth (LTED cells; E2 10^−10 M in the presence of fulvestrant 10^−9 M) was “inhibited”, the basal growth (LTED cells; culture media, five days) was “dose-dependently inhibited” and the “growth factor induced Thr229 phosphorylation of p70 S6K” value ([1]; EGF or IGF-1) was “very limited, if any, inhibition”. The “EGF-induced phosphorylation of p70S6K at Thr389” value ([1]; FTS even at 50 μM, EGF 1 μg/ml 1 h) was “completely abolished”, the “EGF-induced ERK1/2 MAP kinase phosphorylation” value [1, 2] was “did not inhibit” and the “EGF-induced phosphorylation of Akt at Ser473” value [1, 2] was “neither FTS nor rapamycin blocked”. The “PHAS-1 Ser65 phosphorylation” value ([1]; serum starved 24 h, EGF) was “dose-dependently inhibited” and the “amount of endogenous raptor that coimmunoprecipitated with mTOR” value (mTOR-raptor complex) was “markedly decreased”.
